According to BindingDB's records for doi:10.1016/j.bioorg.2015.06.003 (Gwangju Institute of Science and Technology, 2015):
pIC50: −log10 of the molar value.

Biological target: T1, P2X purinoceptor 7 (Homo sapiens, UniProt Q99572)
T1 sequence (Q99572 whole entry): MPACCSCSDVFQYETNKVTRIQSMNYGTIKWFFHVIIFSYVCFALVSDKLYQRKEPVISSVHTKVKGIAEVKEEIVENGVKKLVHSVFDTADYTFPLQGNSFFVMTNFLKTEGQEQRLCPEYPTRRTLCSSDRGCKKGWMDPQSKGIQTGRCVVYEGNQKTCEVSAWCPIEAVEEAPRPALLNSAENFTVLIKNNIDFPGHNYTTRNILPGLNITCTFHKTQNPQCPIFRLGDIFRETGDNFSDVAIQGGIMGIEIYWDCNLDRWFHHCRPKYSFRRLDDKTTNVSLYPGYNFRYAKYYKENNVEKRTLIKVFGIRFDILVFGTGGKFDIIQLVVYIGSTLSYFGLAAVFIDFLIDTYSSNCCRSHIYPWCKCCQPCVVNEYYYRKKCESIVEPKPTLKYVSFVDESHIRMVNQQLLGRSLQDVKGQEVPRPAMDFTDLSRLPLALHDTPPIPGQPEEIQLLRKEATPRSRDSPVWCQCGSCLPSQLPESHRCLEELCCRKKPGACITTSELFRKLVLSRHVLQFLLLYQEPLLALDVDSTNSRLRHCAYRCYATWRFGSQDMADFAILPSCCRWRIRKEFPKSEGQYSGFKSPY
Experiment: Ethidium Bromide Uptake Assay
Conditions: pH 7.4
Experimental: hP2X7-expressing HEK 293 cells were re-suspended at 2.5 × 10^6 cells/mL in assay buffer composed of 10 mM HEPES, 5 mM N-methyl-D-glutamine, 5.6 mM KCl, 10 mM D-glucose, and 0.5 mM CaCl2 (pH 7.4) supplemented with either 280 mM sucrose or 140 mM NaCl, and an 80 µL aliquot was added to each well of a 96-well plate. To each compound were added and KN-62 as the positive control, followed by the hP2X7R agonist benzoyl ATP (BzATP). The plates were incubated at 37 °C for 2 h and the cellular accumulation of ethidium ion was determined by measuring fluorescence (excitation = 530 nm; emission = 590 nm).

Row | SMILES | pIC50
1 | CC12CC3CC(C)(C1)CC(C(=O)NNc1cnc4ccccc4c1)(C3)C2 [3,5-Dimethyl-N'-(quinolin-3-yl)adamantane-1-carbohydrazide (9h)] | 5.43
2 | CC12CC3CC(C)(C1)CC(C(=O)NNc1ncnc4nc[nH]c14)(C3)C2 [3,5-Dimethyl-N'-(7H-purin-6-yl)adamantane-1-carbohydrazide (9n)] | 5.54
3 | CC12CC3CC(C)(C1)CC(C(=O)NNc1ccnc4ccccc14)(C3)C2 [3,5-Dimethyl-N'-(quinolin-4-yl)adamantane-1-carbohydrazide (9g)] | 6.14
4 | CC12CC3CC(C)(C1)CC(C(=O)NNc1ncnc4ccccc14)(C3)C2 [3,5-Dimethyl-N'-(quinazolin-4-yl)adamantane-1-carbohydrazide (9k)] | 5.26
5 | CC12CC3CC(C)(C1)CC(C(=O)NNc1ccc4ccccc4n1)(C3)C2 [3,5-Dimethyl-N'-(quinolin-2-yl)adamantane-1-carbohydrazide (9i)] | 5.54

Next, values leading:

Row | pIC50 | SMILES
6 | 6.75 | CC12CC3CC(C)(C1)CC(C(=O)NNc1nc(Cl)nc4nc[nH]c14)(C3)C2 [N'-(2-Chloro-7H-purin-6-yl)-3,5-dimethyladamantane-1-carbohydrazide (9o)]
7 | 5.96 | CC12CC3CC(C)(C1)CC(C(=O)NNc1ccnc4c(Cl)cccc14)(C3)C2 [N'-(8-Chloroquinoline-4-yl)-3,5-dimethyladamantanehydrazide (9j)]
